Assay results: US10208089B2, “Modulation of complement activity” (priority 2014, dated 2019)
Starred links: 1 amine or outer side, 2 acyl side, 3 side chain; linkers in the order of their positions; H or OH if unused. Positions of bridges follow the written chain, without caps; N, C: chain ends. Non-standard residues stand in square brackets, D forms with d. Residues, ends and D or L forms follow the SMILES beside them. Trp(7-aza) = N[C@@H](Cc1c[nH]c2ncccc12)C(=O)O; NMePhe(4-F) = CN[C@@H](Cc1ccc(F)cc1)C(=O)O; mXylylene = c1cc(C[*:1])cc(C[*:2])c1; Phg = N[C@H](C(=O)O)c1ccccc1; Tle = CC(C)(C)[C@H](N)C(=O)O; NMeS = CN[C@@H](CO)C(=O)O; NMeA = CN[C@@H](C)C(=O)O; Nva = CCC[C@H](N)C(=O)O; Sar = CNCC(=O)O

Biological target: C5 (Homo sapiens, UniProt P01031)
Test: Human hemolysis assay (RBC lysis assay using complete human sera)
Assay type: cell-based
Parameters: with complete human sera (Complement Technology, Tyler Tex.) and polypeptides; tissue Complement Technology, Tyler Tex; host or cells: complete human serum
Settings: inhibition of lysis of antibody-sensitized sheep erythrocytes, complete human sera

Chain of C5 (P01031 19-1676): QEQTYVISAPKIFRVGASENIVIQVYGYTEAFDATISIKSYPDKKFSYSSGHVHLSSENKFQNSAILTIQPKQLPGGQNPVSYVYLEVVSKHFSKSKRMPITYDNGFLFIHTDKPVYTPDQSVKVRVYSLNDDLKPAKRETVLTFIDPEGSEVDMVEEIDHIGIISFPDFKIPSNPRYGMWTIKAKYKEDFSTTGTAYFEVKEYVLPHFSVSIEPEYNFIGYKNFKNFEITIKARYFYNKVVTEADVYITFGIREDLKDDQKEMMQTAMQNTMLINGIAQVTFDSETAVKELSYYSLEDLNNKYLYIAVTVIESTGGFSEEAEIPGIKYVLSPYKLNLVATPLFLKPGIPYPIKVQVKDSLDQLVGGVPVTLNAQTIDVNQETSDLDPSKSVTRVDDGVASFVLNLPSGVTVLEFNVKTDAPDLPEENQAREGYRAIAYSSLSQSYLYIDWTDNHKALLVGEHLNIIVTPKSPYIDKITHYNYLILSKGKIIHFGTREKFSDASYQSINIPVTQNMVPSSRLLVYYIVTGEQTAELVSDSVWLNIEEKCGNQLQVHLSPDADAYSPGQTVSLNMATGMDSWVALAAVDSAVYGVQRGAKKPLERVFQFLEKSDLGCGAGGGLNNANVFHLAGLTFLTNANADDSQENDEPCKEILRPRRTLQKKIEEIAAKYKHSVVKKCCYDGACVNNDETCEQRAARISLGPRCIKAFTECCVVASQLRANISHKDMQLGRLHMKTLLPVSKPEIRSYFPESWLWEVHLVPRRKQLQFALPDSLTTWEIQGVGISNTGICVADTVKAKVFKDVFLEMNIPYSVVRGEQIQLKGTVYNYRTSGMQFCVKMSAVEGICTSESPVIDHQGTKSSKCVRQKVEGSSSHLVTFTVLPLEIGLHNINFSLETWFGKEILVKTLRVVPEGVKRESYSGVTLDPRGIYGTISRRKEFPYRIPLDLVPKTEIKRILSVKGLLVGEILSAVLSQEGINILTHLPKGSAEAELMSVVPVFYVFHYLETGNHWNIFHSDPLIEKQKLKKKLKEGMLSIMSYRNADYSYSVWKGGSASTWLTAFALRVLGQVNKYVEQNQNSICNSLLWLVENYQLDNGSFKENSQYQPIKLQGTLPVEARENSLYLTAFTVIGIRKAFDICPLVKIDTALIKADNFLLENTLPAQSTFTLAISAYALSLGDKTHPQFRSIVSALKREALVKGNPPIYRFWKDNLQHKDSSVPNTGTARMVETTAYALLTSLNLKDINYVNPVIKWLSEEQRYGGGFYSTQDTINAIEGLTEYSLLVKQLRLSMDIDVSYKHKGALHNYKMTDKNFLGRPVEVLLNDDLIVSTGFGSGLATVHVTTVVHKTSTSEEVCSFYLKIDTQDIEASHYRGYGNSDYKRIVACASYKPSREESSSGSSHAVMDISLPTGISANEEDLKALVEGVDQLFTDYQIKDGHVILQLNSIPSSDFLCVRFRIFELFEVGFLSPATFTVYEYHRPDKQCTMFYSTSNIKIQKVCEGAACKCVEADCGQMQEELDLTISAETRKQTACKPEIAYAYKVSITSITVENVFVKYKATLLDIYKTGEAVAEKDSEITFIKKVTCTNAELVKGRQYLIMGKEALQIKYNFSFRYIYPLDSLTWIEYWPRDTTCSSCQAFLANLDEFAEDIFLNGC

CCC[C@H](NC(=O)CN(C)C(=O)[C@H](Cc1ccc(O)cc1)NC(=O)[C@H](CCC(=O)O)NC(=O)[C@H](Cc1c[nH]c2ncccc12)NC(=O)[C@H](Cc1ccc(O)cc1)NC(=O)[C@@H](NC(=O)[C@H](CC(N)=O)NC(=O)[C@H](CCC(=O)O)NC(=O)[C@H](Cc1ccc(O)cc1)NC(C)=O)C(C)(C)C)C(=O)N(C)[C@@H](CO)C(N)=O [Compound R3006, Ac-Y-E-N-Tbg-Y-azaTrp-E-Y-(N-Me)G-Nvl-(N-Me)S-NH2] (Ac-YEN[Tle]Y[Trp(7-aza)]EY[Sar][Nva][NMeS]-NH2)
IC50: 267 nM

CCC[C@H](NC(C)=O)C(=O)N[C@H]1CSCc2cccc(c2)CSC[C@@H](C(=O)N[C@@H](C)C(N)=O)NC(=O)[C@H](Cc2c[nH]cn2)NC(=O)[C@H](CO)N(C)C(=O)[C@H](Cc2ccc(O)cc2)NC(=O)[C@H](CCC(=O)O)NC(=O)[C@H](Cc2c[nH]c3ncccc23)NC(=O)[C@H]([C@@H](C)O)NC(=O)[C@H](c2ccccc2)NC1=O [Compound R3039, [mXylyl(2,10)]Ac-Nvl-C-Phg-T-azaTrp-E-Y-(N-Me)S-H-C-A-NH2] (Ac-[Nva]C[Phg]T[Trp(7-aza)]EY[NMeS]HCA-NH2; linker 2-10 via mXylylene)
IC50: 240 nM

CCC[C@H](N)C(=O)N[C@H]1CSCc2cccc(c2)CSC[C@@H](C(=O)N[C@H](C(=O)N(C)[C@@H](C)C(N)=O)c2ccccc2)NC(=O)[C@H](CC(C)C)NC(=O)CN(C)C(=O)[C@H](CC(N)=O)NC(=O)[C@H](c2ccccc2)NC(=O)[C@H](C(C)(C)C)NC(=O)[C@H](Cc2ccc(O)cc2)NC1=O [Compound R3052, [mXylyl(2,9)]Nvl-C-Y-Tbg-Phg-N-(N-Me)G-L-C-Phg-(N-Me)A-NH2] (H-[Nva]CY[Tle][Phg]N[Sar]LC[Phg][NMeA]-NH2; linker 2-9 via mXylylene)
IC50: > 100000 nM

CCC[C@H](NC(=O)[C@@H]1CSCc2cccc(c2)CSC[C@H](NC(=O)[C@H](CCC)NC(C)=O)C(=O)N[C@@H](c2ccccc2)C(=O)N[C@@H]([C@@H](C)O)C(=O)N[C@@H](Cc2c[nH]c3ncccc23)C(=O)N[C@@H](CCC(=O)O)C(=O)N[C@@H](Cc2ccc(OC)cc2)C(=O)N(C)[C@@H](CO)C(=O)N[C@@H](Cc2c[nH]cn2)C(=O)N1)C(N)=O [Compound R3074, [mXylyl(2,10)]Ac-Nvl-C-Phg-T-azaTrp-E-Tyr(OMe)-(N-Me)S-H-C-Nvl-NH2] (Ac-[Nva]C[Phg]T[Trp(7-aza)]EY(Me)[NMeS]HC[Nva]-NH2; linker 2-10 via mXylylene)
IC50: 308 nM

CCC[C@H](N)C(=O)N[C@H]1CSCc2cccc(c2)CSC[C@@H](C(N)=O)NC(=O)CN(C)C(=O)[C@H](Cc2ccc(F)cc2)N(C)C(=O)[C@H](Cc2c[nH]cn2)NC(=O)[C@H](CO)N(C)C(=O)[C@H](Cc2ccc(F)cc2)N(C)C(=O)[C@H](c2ccccc2)NC(=O)[C@H](CO)N(C)C(=O)[C@H](Cc2ccc(O)cc2)NC1=O [Compound R3051, [mXylyl(2,11)]Nvl-C-Y-(N-Me)S-Phg-(N-Me-4-F)Phe-(N-Me)S-H-(N-Me-4-F)-Phe-(N-Me)G-C-NH2] (H-[Nva]CY[NMeS][Phg][NMePhe(4-F)][NMeS]H[NMePhe(4-F)][Sar]C-NH2; linker 2-11 via mXylylene)
IC50: > 100000 nM

CCC[C@H](NC(=O)[C@@H]1CSCc2cccc(c2)CSC[C@H](NC(=O)[C@H](C)NC(C)=O)C(=O)N[C@@H](c2ccccc2)C(=O)N[C@@H]([C@@H](C)O)C(=O)N[C@@H](Cc2c[nH]c3ncccc23)C(=O)N[C@@H](CCC(=O)O)C(=O)N[C@@H](Cc2ccc(O)cc2)C(=O)N(C)[C@@H](CO)C(=O)N[C@@H](Cc2c[nH]cn2)C(=O)N1)C(N)=O [Compound R3031, [mXylyl(2,10)]Ac-A-C-Phg-T-azaTrp-E-Y-(N-Me)S-H-C-Nvl-NH2] (Ac-AC[Phg]T[Trp(7-aza)]EY[NMeS]HC[Nva]-NH2; linker 2-10 via mXylylene)
IC50: 1090 nM

CCC[C@H](NC(=O)[C@@H]1CSCc2cccc(c2)CSC[C@H](NC(=O)[C@H](CCC)NC(C)=O)C(=O)N[C@@H](c2ccccc2)C(=O)N[C@@H]([C@@H](C)O)C(=O)N[C@@H](Cc2c[nH]c3ncccc23)C(=O)N[C@@H](CCC(=O)O)C(=O)N[C@@H](Cc2ccc(O)cc2)C(=O)N(C)[C@@H](CO)C(=O)N[C@H](C)C(=O)N1)C(N)=O [Compound R3135, [mXylyl(2,10)]Ac-Nvl-C-Phg-T-azaTrp-E-Y-(N-Me)S-(D-Ala)-C-Nvl-NH2] (Ac-[Nva]C[Phg]T[Trp(7-aza)]EY[NMeS][dA]C[Nva]-NH2; linker 2-10 via mXylylene)
IC50: > 25000 nM

CCC[C@H](NC(=O)[C@@H]1CSCc2cccc(c2)CSC[C@H](NC(=O)[C@H](CCC)NC(C)=O)C(=O)N[C@@H](c2ccccc2)C(=O)N[C@@H]([C@@H](C)O)C(=O)N[C@@H](Cc2c[nH]c3ncccc23)C(=O)N[C@@H](CCC(=O)O)C(=O)N[C@@H](Cc2ccc(O)cc2)C(=O)N(C)[C@@H](CO)C(=O)N[C@@H](C)C(=O)N1)C(N)=O [Compound R3038, [mXylyl(2,10)]Ac-Nvl-C-Phg-T-azaTrp-E-Y-(N-Me)S-A-C-Nvl-NH2] (Ac-[Nva]C[Phg]T[Trp(7-aza)]EY[NMeS]AC[Nva]-NH2; linker 2-10 via mXylylene)
IC50: 140 nM

CCC[C@H](NC(=O)[C@@H](NC(=O)[C@@H]1CCCN1C(=O)[C@H](Cc1ccc(O)cc1)NC(=O)[C@H](CCC(=O)O)NC(=O)[C@H](Cc1c[nH]c2ncccc12)NC(=O)[C@H](Cc1ccc(O)cc1)NC(=O)[C@@H](NC(=O)[C@H](C)NC(=O)[C@@H]1CSCc2cccc(c2)CSC[C@H](NC(C)=O)C(=O)N[C@@H](C(C)C)C(=O)N[C@@H](CCC(=O)O)C(=O)N[C@@H](CCCNC(=N)N)C(=O)N[C@@H](Cc2ccccc2)C(=O)N1)C(C)(C)C)c1ccccc1)C(N)=O [Compound R3157, [mXylyl(1,6)]Ac-C-V-E-R-F-C-A-Tbg-Y-azaTrp-E-Y-P-Phg-Nvl-NH2] (Ac-CVERFCA[Tle]Y[Trp(7-aza)]EYP[Phg][Nva]-NH2; linker 1-6 via mXylylene)
IC50: 84.5 nM

CCC[C@H](NC(=O)[C@@H](NC(=O)[C@@H]1CCCN1C(=O)[C@H](Cc1ccc(O)cc1)NC(=O)[C@H](CCC(=O)O)NC(=O)[C@H](Cc1c[nH]c2ncccc12)NC(=O)[C@H](Cc1ccc(O)cc1)NC(=O)[C@@H](NC(C)=O)C(C)(C)C)c1ccccc1)C(N)=O [Compound R3028, Ac-Tbg-Y-azaTrp-E-Y-P-Phg-Nvl-NH2] (Ac-[Tle]Y[Trp(7-aza)]EYP[Phg][Nva]-NH2)
IC50: > 10000 nM
